Assay results from patent US11365201B2, “Chlorotonil derivatives” (HELMHOLTZ-ZENTRUM FÜR INFEKTIONSFORSCHUNG GMBH, priority 2017, dated 2022).
Converted amounts (≈) assume the structure as drawn. Where two headings read alike, the source gives them in different places.

Columns and labels:
[1] = test system: L-929 (murine fibroblasts); experiment: Cytotoxicity assay (MTT, 5 d); type: cell-based; conditions: Mus musculus, L929, 120 h
Method: Cytotoxicity Assay The murine fibroblast cell line L-929 was obtained from the German Collection of Microorganisms and Cell Cultures (DSMZ) and maintained under conditions recommended by the depositor. Cells were seeded at 6×10^3 cells per well of sterile 96-well plates in 180 μL complete medium and treated with the compounds in serial dilution after 2 h of equilibration. After 5 d, viability was assessed by the MTT method. After 1.5 h incubation with 0.5 mg/mL MTT reagent, cells were washed with PBS and 100 μL of 2-propanol/10 N HCl (250:1) was added. The absorbance at 570 nm was determined on a microplate reader and cell viability was expressed as percentage relative to the respective solvent control. Half-inhibitory concentrations (IC50) were determined by sigmoidal curve fitting.

[2] = Determination of water solubility, Method 2 (HPLC-MS standard curve, saturated solution in water); type: physicochemical; conditions: for solubility: thermodynamic from solid, saturated solution in water, HPLC-MS standard curve
Method: (§1) Determination of Water Solubility
A standard curve with 10 calibration points of the compound of interest is plotted using HPLC-MS and serial dilution. The dilutions and stock solutions were prepared in THF as a solvent. Following the measurements, a saturated solution in water of the compound in study was also measured. Upon plotting the standard curve using the peak areas of the MS peaks, the water samples were plotted along the curve and the solubility was then calculated.

[3] = Determination of water solubility, Method 1 (suspension in tap water, weighing); type: physicochemical; conditions: thermodynamic from solid, room temperature, 18 h stirring, triplicates
Method: as §1
10 mg of compound was suspended in 1 L of tap water and the solution was stirred at room temperature for 18 h. Upon completion, solution was sonicated for another hour, centrifuged and the supernatant was separated from the precipitate. Both aliquots were lyophilized, and weighed. This procedure was performed in triplicates.

C. glutamicum DSM-20300 = experiment: Antimicrobial assay, MIC by microbroth dilution; type: cell-based; conditions: Corynebacterium glutamicum, DSM20300; 16 h, cation-adjusted Muller-Hinton broth
Method: (§2) Bacterial strains used in susceptibility assays (minimum inhibitory concentrations, MIC) were either part of our internal strain collection or were purchased form the German Collection of Microorganisms and Cell Cultures (DSMZ). All compounds were prepared as DMSO stocks and MIC values were determined in standard microbroth dilution assays. Overnight cultures of bacteria were diluted in cation-adjusted Muller-Hinton broth (BBL™, BD) and were adjusted to approximately 10^5 cfu/mL. […] Bacteria were grown in the presence of the derivatives in serial dilution for 16 h at their optimal growth temperature. MIC values were determined according to CLSI guidelines (antibiotic concentration at which no visible bacterial growth is observed).

B. subtilis DSM-10 = experiment: Antimicrobial assay, MIC by microbroth dilution; type: cell-based; conditions: Bacillus subtilis, DSM10; 16 h, cation-adjusted Muller-Hinton broth
Method: as §2

S. aureus Newman = experiment: Antimicrobial assay, MIC by microbroth dilution; type: cell-based; conditions: Staphylococcus aureus, NEWMAN; 16 h, cation-adjusted Muller-Hinton broth
Method: as §2

E. coli TolC (+PMBN) = experiment: Antimicrobial assay, MIC by microbroth dilution with PMBN; type: cell-based; conditions: 16 h, 3 μg/mL polymyxin B nonapeptide (PMBN) added
Method: Bacterial strains used in susceptibility assays (minimum inhibitory concentrations, MIC) were either part of our internal strain collection or were purchased form the German Collection of Microorganisms and Cell Cultures (DSMZ). All compounds were prepared as DMSO stocks and MIC values were determined in standard microbroth dilution assays. Overnight cultures of bacteria were diluted in cation-adjusted Muller-Hinton broth (BBL™, BD) and were adjusted to approximately 10^5 cfu/mL. For the E. coli culture, 3 μg/mL of polymyxin B nonapeptide (PMBN) was added to increase permeability of the outer membrane as chlorotonils were previously shown to not penetrate into Gram-negative cells. Bacteria were grown in the presence of the derivatives in serial dilution for 16 h at their optimal growth temperature. MIC values were determined according to CLSI guidelines (antibiotic concentration at which no visible bacterial growth is observed).

[4] = test system: P. falciparum 3D7 (sensitive strain); experiment: Antiplasmodial in vitro drug sensitivity assay (HRP2-ELISA); type: cell-based; conditions: Plasmodium falciparum; P. falciparum 3D7 (sensitive strain); read-out: IC50 against P. falciparum 3D7
Method: (§3) Two laboratory strains of P. falciparum, the chloroquine sensitive 3D7 and the multi-resistant Dd2 were kept in continuous culture as previously described (Trager and Jensen 1976). In brief, parasites were kept in complete culture medium (RPMI 1640, 25 mM HEPES, 2 mM L-glutamine, 50 μg/ml gentamicin and 0.5% w/v AlbuMAX) at 37° C., 5% CO2 and 5% oxygen at 5% hematocrit with daily change of medium. Synchronization was performed with sorbitol twice a week (Lambros and Vanderberg 1979).
(§4) In Vitro Drug Sensitivity Assay
(§5) All compounds were dissolved in DMSO at stock dilutions between 25 and 100 mM; the reference drug chloroquine diphosphate (MW: 515.86) was diluted in distilled water and DMSO, respectively. […] Antiplasmodial activity of the different compounds was tested in a drug sensitivity assay against the two laboratory strains using the histidine-rich protein 2 (HRP2) assay as described previously (Noedl 2005). In brief: 96 well plates were pre-coated with the different compounds in a threefold dilution before ring stage parasites were added in complete culture medium at a hematocrit of 1.5% and a parasitemia of 0.05% in a total volume of 225 μl per well. After three days of incubation plates were frozen until analyzed by HRP2-ELISA. All compounds were evaluated in duplicate in at least two independent experiments.

[5] = test system: P. falciparum Dd2 (resistant strain); experiment: as above; type: cell-based; conditions: Plasmodium falciparum; P. falciparum Dd2 (resistant strain); read-out: IC50 against P. falciparum Dd2
Method: as §3, §4, §5

[6] = test system: zebrafish larvae of the AB wildtype line; experiment: Zebrafish embryo toxicity, maximum tolerated concentration (MTC), AB line; type: in vivo; conditions: for Observations noted on fish larvae / MTC (maximum tolerated concentration): AB line, at five dpf, incubation started at two dpf
Method: (§6) Zebrafish Embryo Toxicity
(§7) The maximum tolerated concentration (MTC) was determined on zebrafish larvae of the AB wildtype line and the TLF wild type line. Larvae were placed into a 96-well plate (one larva per well) and incubated in a solution at different concentrations (100, 50, 25, 10, 1 μM) of ChA, ChA-Epo2, ChB or ChB-Epo at two days post fertilization (dpf) for AB and in a solution at different concentrations of ChA (100, 50 μM) ChA-Epo2 (25, 10, 1 μM), ChB (100, 50 μM) or ChB-Epo (100, 50, 25 μM) at one dpf for TLF. Five zebrafish larvae were used per condition. The incubated embryos were kept in compound solutions at 28° C. until five dpf and monitored daily by microscopy. The final MTC result was recorded at five dpf. Compound solutions were prepared in the larvae medium Danieau's. Additionally a solution of 0.5% DMSO in Danieau's was used as vehicle control and Danieau's alone as a negative control.

Gram-positive bacteria = experiment: Antimicrobial assay, MIC against a range of Gram-positive bacteria (Table 5); type: cell-based; conditions: read-out: MIC
Method: as §2

[7] = test system: zebrafish larvae of the TLF wild type line; experiment: Zebrafish embryo toxicity, maximum tolerated concentration (MTC), TLF line; type: in vivo; conditions: at five dpf, incubation started at one dpf
Method: as §6, §7

[8] = Enterococcus faecalis, E. faecalis 20478
[9] = Enterococcus faecalis, E. faecalis 29212
[10] = Enterococcus faecium, E. faecium 20477
[11] = Enterococcus faecium, VRE, E. faecium 17050 (VRE)
[12] = Mycolicibacterium smegmatis, M. smegmatis
[13] = Priestia megaterium, B. megaterium
[14] = Staphylococcus epidermidis, S. epidermidis 28765
[15] = Streptococcus pneumoniae, PRSP, S. pneumoniae 11865 (PRSP)
[16] = Streptococcus pneumoniae, S. pneumoniae 20566

Row | Compound | IC50 [1] [µM] | solubility [2] [µg/mL] | solubility at 18 h [3] [µg/mL] | MIC (C. glutamicum DSM-20300) [µg/mL] | MIC (B. subtilis DSM-10) [µg/mL] | MIC (S. aureus Newman) [µg/mL] | MIC E. coli TolC (+PMBN) (E. coli TolC (+PMBN)) [µg/mL] | IC50 [4] [µM] | IC50 [5] [µM] | Observations noted on fish larvae ([6]; 50 μM) | Observations noted on fish larvae ([6]; 100 μM) | MTC (maximum tolerated concentration) [6] [µM] | MIC (Gram-positive bacteria; [8]) [µg/mL] | MIC (Gram-positive bacteria; [9]) [µg/mL] | MIC (Gram-positive bacteria; [10]) [µg/mL] | MIC (Gram-positive bacteria; [11]) [µg/mL] | MIC (Gram-positive bacteria; Micrococcus luteus, M. luteus) [µg/mL] | MIC (Gram-positive bacteria; [12]) [µg/mL] | MIC (Gram-positive bacteria; [13]) [µg/mL] | MIC (Gram-positive bacteria; [14]) [µg/mL] | also measured
1 | C[C@@H]1C(=O)O[C@@H](C)/C=C/C=C\[C@@H](C)[C@@H]2C=C[C@@H]3C[C@@](C)(O)[C@H](Cl)[C@@H](C)[C@H]3[C@@H]2C(=O)C(Cl)(Cl)C1=O [ChA-Epo2-Cl] | 4.2 | 320 (≈ 602 µM) | 280 (≈ 526 µM) | 0.4 (≈ 0.752 µM) | 0.1 (≈ 0.188 µM) | 0.05 (≈ 0.094 µM) | 0.8 | 0.0387 | 0.0459 | – | – | – | – | – | – | – | – | – | – | – | –
2 | C[C@@H]1C(=O)O[C@@H](C)/C=C/C=C\[C@@H](C)[C@@H]2C=C[C@@H]3C[C@@]4(C)O[C@H]4[C@@H](C)C3C2/C(O)=C(\Cl)C1=O (stereo partly drawn) [ChB-Epo] | – | – | – | – | – | 0.05 (≈ 0.108 µM) | – | 0.158 | 0.182 | died | died | 25 | 3.2 (≈ 6.94 µM) | > 3.2 | > 3.2 | 3.2 (≈ 6.94 µM) | 0.1 (≈ 0.217 µM) | > 3.2 | 0.05 (≈ 0.108 µM) | 0.8 (≈ 1.74 µM) | Toxicity in zebrafish (MTC), comparison of the epoxide derivatives ([6]; zebrafish, line not named in the sentence (Tables 6 and 7)): less toxic than the chlorotonil A derivative; MIC (Gram-positive bacteria; [15]): > 32 µg/mL; MIC (Gram-positive bacteria; [16]): 0.8 µg/mL (≈ 1.74 µM); Observations noted on fish larvae ([7]; 50 μM): slight tail malformation; Observations noted on fish larvae ([7]; 100 μM): tail malformation; MTC (maximum tolerated concentration) [7]: 25 µM
3 | C[C@@H]1C(=O)O[C@@H](C)/C=C/C=C\[C@@H](C)[C@@H]2C=C[C@@H]3C[C@@]4(C)O[C@H]4[C@@H](C)[C@H]3[C@@H]2C(=O)C(Cl)(Cl)C1=O [ChA-Epo2] | 2.1 | 10.3 (≈ 20.8 µM) | 14 (≈ 28.3 µM) | 0.05 (≈ 0.101 µM) | 0.025 (≈ 0.0505 µM) | 0.025 (≈ 0.0505 µM) | 0.1 | 0.0513 | 0.0871 | died | died | 1 | 0.8 (≈ 1.61 µM) | 1.6 (≈ 3.23 µM) | 3.2 (≈ 6.46 µM) | 0.4 (≈ 0.807 µM) | 0.025 (≈ 0.0505 µM) | 0.003 (≈ 0.00606 µM) | 0.00125 (≈ 0.00252 µM) | 0.2 (≈ 0.404 µM) | Observations noted on fish larvae ([6]; 10 μM): died; Observations noted on fish larvae ([6]; 25 μM): died; MIC (Gram-positive bacteria; [15]): 8 µg/mL (≈ 16.1 µM); MIC (Gram-positive bacteria; [16]): 0.2 µg/mL (≈ 0.404 µM); Observations noted on fish larvae ([7]; 10 μM): 4 delayed in development; Observations noted on fish larvae ([7]; 25 μM): 1 died, 4 delayed in; MTC (maximum tolerated concentration) [7]: 1 µM
4 | CC1=C[C@@H](C)[C@H]2[C@@H]3C(=O)C(Cl)(Cl)C(=O)[C@H](C)C(=O)O[C@@H](C)/C=C/C=C\[C@@H](C)[C@@H]3C=C[C@@H]2C1 [Chlorotonil A (ChA), Chlorotonil A, reference compound] | – | – | – | – | – | – | – | – | – | – | – | – | – | – | – | – | – | – | – | – | water solubility ([2]; summary of Table 1, method not given): less than 2 μg/mL
